Measured values published in patent publication US6383520B1, “Fine powder of L-α-aminoadipic acid derivative, oral solid preparations containing the same, and method for treatment of bulk powders” (Chugai Seiyaku Kabushiki Kaisha, priority 1998, dated 2002).

How the values were obtained:
[1] = Storage stability (60° C., 2 weeks); format: physicochemical; conditions: for storage stability after the grinding treatment (in words): 60° C.; for Residual ratio: storage 60° C.
Description: A comparison was made on the storage stability (60° C., 2 weeks) of the crystalline bulk powder of MX-68 obtained by the method described in Japanese Laid-Open Patent Publication No. 6-239863(A)) (manufactured by Chugai Pharmaceutical Co., Ltd.), the mortar-ground bulk powder and the centrifugal-ground bulk powder obtained in Example 1.

[2] = Thermal analysis: differential scanning calorimetry, endotherm; format: physicochemical; conditions: DSC; for endotherm compared with the unground bulk powder (in words): before and after the grinding treatment; for Endotherm: temperature rise 5° C./min
Description: The finely ground powder of MX-68 sustaining the crystallinity according to the present invention means a finely ground powder of MX-68 which has, both before and after the grinding treatment, parts showing polarization when observed under a polarization microscope, and has an endotherm of from 25 to 50 mJ/mg, preferably from […] at an endothermic peak appearing, for example, at 185 to 195° C. in the differential scanning calorimetry as will be described Example 2.
A crystalline bulk powder of MX-68 obtained by the method described in Japanese Laid-Open Patent Publication No. 6-239863(A)) (manufactured by Chugai Pharmaceutical Co., Ltd.) and the finely ground powders of MX-68 obtained by the grinding methods described in Example 1 were thermally analyzed to thereby determine the differential scanning calories (DSC, temperature rise: 5° C./min). Then the endotherm (caused by the endothermic reaction occurring in association with the conversion of crystalline particles in the crystalline bulk powder into the amorphous state) was calculated.

[3] = Average particle diameter by dry particle size distribution measurement (AEROSIZER mach 2); format: physicochemical; conditions: dry particle size distribution measurement after grinding
Text: The average particle diameter of the finely ground powder of MX-68 in the present invention can be measured by using, for example, a dry particle size distribution measurement apparatus (AEROSIZER mach 2, manufactured by AMHERST PROCESS INSTRUMENTS, INC) as will be described in Example 1 hereinafter. The finely ground powder of MX-68 according to the present invention has an average particle diameter of from 5 to 25 μm. When the average particle diameter is less than 5 μm, the finely ground powder is liable to be charged with static electricity and thus there arises a high possibility of dusting and adhesion. When the average particle diameter exceeds 25 μm, on the other hand, it is feared that the solubility and/or content uniformity of MX-68 are adversely affected. It is preferable that the average particle diameter ranges from 8 to 15 μm, still preferably from 9 to 11 μm.
A crystalline bulk powder of MX-68 obtained by the method described in Japanese Laid-Open Patent Publication No. 6-239863(A)) (manufactured by Chugai Pharmaceutical Co., Ltd.) was manually ground in an agate mortar. Separately, the same bulk powder was ground with a centrifugal grinder (ZM-1, manufactured by Nippon Seiki Seisakusho) by using a screen (pore size: 0.2 mm) at 20,000 rpm. Separately, the same bulk powder was ground with a micro-labo jet mill (A-O Jet Mill, manufactured by Seishin Kigyo). The particle diameter of each finely ground powder of MX-68 thus obtained was measured by using a dry particle size distribution measurement apparatus (AEROSIZER mach 2, manufactured by AMHERST PROCESS INSTRUMENTS, INC) and the average particle diameter was determined. As a result, the average particle diameter could be controlled to 9 to 11 μm by each grinding method (Table 1).

[4] = Pharmacokinetics after oral administration to dogs, MX-68 concentration in the blood; format: in vivo; conditions: 1 mg/kg
[5] = Dissolution test, method 2 (paddle method), Japanese Pharmacopoeia; format: physicochemical; conditions: compared with the amorphous bulk powder
Text: Tablets of the following formula were produced by using the crystalline bulk powder of MX-68 obtained by the method described in Japanese Laid-Open Patent Publication No. 6-239863(A)) (manufactured by Chugai Pharmaceutical Co., Ltd.), an amorphous bulk powder and the centrifugal.-ground bulk powder obtained in Example 1. More particularly, MX-68, lactose, crystalline cellulose and croscarmellose sodium were dry-mixed. After adding water, the mixture was kneaded and granulated. Then the granulated matter was dried at 50° C., mixed with magnesium stearate, and press molded to give tablets of 6 mm in diameter. In accordance with the method 2 (paddle method) of the dissolution test as specified in Japanese Pharmacopoeia, these tablets were subjected to the dissolution test using 500 ml of JP official solution 1 at 37° C.

Row | Structure (SMILES) | storage stability after the grinding treatment (in words) [1] | Residual ratio [1] | endotherm compared with the unground bulk powder (in words) [2] | Endotherm [2] | Average particle diameter [3] | Residual ratio ([1]; listed as Motor-ground bulk powder) | bioavailability (in words) ([4]; compared with the amorphous bulk powder) | solution speed (in words) [5] | absorbability (in words) ([4]; compared with the unground bulk powder)
1 | Nc1nc(N)c2nc(CN3CCSc4cc(C(=O)N[C@@H](CCCC(=O)O)C(=O)O)ccc43)cnc2n1 [Centrifugal-ground bulk powder, N-(1-((2,4-diamino-6-pteridinyl)methyl)-3,4-dihydro-2H-1,4-benzothiazine-7-carbonyl)L-α-aminoadipic acid] | sustained stability comparable to the unground bulk powder | 96.3% | no change in the endotherm | 32.8 mJ/mg | 11.4 μm |  |  |  | 
2 | Nc1nc(N)c2nc(CN3CCSc4cc(C(=O)N[C@@H](CCCC(=O)O)C(=O)O)ccc43)cnc2n1 [Jet mill-ground bulk powder, N-(1-((2,4-diamino-6-pteridinyl)methyl)-3,4-dihydro-2H-1,4-benzothiazine-7-carbonyl)L-α-aminoadipic acid] |  |  | no change in the endotherm | 33.2 mJ/mg | 10.7 μm |  |  |  | 
3 | Nc1nc(N)c2nc(CN3CCSc4cc(C(=O)N[C@@H](CCCC(=O)O)C(=O)O)ccc43)cnc2n1 [Mortar-ground bulk powder] | a decrease in stability |  | a decrease in the endotherm | 22.3 mJ/mg | 9.3 μm | 90.9% |  |  | 
4 | Nc1nc(N)c2nc(CN3CCSc4cc(C(=O)N[C@@H](CCCC(=O)O)C(=O)O)ccc43)cnc2n1 [Unground bulk powder] |  | 95.3% |  | 33.5 mJ/mg |  |  | lower bioavailability | lower solution speed | 
5 | Nc1nc(N)c2nc(CN3CCSc4cc(C(=O)N[C@@H](CCCC(=O)O)C(=O)O)ccc43)cnc2n1 [amorphous bulk MX-68 powder, N-(1-((2,4-diamino-6-pteridinyl)methyl)-3,4-dihydro-2H-1,4-benzothiazine-7-carbonyl)L-α-aminoadipic acid] |  |  |  |  |  |  |  |  | higher absorbability
